Biological target: Sodium channel protein type 9 subunit alpha (Homo sapiens, UniProt Q15858)
Test: In Vitro Electrophysiology: Electrophysiological studies are performed with an IonWorks Quattro (Molecular Devices Corp.) automated patch-clamp electrophysiology platform as described by (Schroeder K et al. Journal of Biomolecular Screening 2003, 8 (1), 50-64). Buffers for the experiments have the following composition (mM): Internal solution; K-gluconate 100, KCl 40, MgCl2 3.2, HEPES 5, EGTA 3, pH 7.3. To this amphotericin B is added to final concentration of 0.1 mg/ml to generate access solution. External solution; Dulbecco's Phosphate buffered saline (D-PBS) NaCl 137.93, KCl 2.67, KH2PO4 1.47, Na2HPO4 8.06, CaCl2 0.90, MgCl2 0.49. Prior to the experiment the cells expressing the voltage-gated ion channel of interest are detached from the tissue culture flasks, centrifuged and resuspended in D-PBS. Compounds are prepared and serially diluted in DMSO and finally diluted 1:100 in D-PBS. Cells are exposed to compounds through the pipetting system integrated into the platform and the voltage-gated ion channel of interest is activated with specific voltage stimulation protocols. The following voltage stimulation protocol is used for testing compounds against the voltage-gated sodium channel Nav1.7; from a holding potential of −100 mV a train of eight 60 ms depolarising steps to −20 mV at a frequency of 14 Hz are employed followed by a further step to −20 mV for 2000 ms. […]

Sodium channel protein type 9 subunit alpha, sequence (Q15858 whole entry): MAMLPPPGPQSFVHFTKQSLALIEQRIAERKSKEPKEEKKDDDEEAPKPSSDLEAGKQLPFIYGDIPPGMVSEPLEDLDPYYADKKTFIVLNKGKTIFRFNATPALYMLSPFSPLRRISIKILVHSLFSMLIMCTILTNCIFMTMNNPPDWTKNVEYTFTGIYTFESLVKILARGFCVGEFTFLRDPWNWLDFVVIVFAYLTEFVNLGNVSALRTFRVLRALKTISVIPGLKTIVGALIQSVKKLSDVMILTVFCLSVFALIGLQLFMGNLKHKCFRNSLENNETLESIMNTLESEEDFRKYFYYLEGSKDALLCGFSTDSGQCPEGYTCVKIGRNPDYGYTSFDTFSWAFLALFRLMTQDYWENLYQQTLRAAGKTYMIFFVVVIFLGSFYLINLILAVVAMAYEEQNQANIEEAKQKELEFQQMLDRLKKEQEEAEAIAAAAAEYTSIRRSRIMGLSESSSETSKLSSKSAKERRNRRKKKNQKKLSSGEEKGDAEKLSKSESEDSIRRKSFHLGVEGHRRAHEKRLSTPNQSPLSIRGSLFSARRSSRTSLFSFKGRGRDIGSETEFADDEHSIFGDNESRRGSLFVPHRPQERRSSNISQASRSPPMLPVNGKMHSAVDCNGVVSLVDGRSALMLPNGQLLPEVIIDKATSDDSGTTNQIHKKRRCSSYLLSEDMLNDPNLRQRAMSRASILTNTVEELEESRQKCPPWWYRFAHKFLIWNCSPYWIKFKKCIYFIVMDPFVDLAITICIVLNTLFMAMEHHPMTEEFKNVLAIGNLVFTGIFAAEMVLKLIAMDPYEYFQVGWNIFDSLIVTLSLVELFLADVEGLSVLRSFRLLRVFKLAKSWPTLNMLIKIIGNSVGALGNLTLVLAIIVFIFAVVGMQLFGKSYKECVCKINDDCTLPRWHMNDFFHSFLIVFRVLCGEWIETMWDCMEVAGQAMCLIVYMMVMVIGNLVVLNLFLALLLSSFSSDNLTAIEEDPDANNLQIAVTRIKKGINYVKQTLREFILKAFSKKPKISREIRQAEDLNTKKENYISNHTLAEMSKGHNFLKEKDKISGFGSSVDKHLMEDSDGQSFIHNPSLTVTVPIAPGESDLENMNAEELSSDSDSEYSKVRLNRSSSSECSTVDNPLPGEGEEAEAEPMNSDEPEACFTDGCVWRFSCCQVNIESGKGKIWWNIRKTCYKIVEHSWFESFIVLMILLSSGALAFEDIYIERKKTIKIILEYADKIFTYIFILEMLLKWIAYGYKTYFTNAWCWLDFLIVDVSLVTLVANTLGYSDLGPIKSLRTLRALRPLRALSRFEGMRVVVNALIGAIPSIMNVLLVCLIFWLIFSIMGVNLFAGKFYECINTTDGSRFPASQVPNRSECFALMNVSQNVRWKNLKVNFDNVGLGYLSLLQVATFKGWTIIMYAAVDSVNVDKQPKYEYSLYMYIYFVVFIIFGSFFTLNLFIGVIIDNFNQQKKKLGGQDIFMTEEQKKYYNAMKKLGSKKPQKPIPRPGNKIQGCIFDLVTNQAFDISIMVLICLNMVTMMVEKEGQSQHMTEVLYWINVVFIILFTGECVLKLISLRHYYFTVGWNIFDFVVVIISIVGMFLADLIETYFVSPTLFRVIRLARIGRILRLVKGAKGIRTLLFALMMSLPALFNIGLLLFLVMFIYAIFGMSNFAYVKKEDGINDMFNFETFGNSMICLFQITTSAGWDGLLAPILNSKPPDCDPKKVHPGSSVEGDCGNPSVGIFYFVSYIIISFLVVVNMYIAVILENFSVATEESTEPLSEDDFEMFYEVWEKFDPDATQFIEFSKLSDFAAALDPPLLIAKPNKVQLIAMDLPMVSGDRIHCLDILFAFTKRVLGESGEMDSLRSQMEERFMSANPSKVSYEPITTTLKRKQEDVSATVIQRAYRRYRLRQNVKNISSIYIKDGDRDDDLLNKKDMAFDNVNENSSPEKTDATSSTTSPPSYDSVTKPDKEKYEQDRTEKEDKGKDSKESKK

Row | IC50 [nM] | SMILES
1 | 1230 | COc1ccc(OCC(F)(F)C(F)(F)F)c(-c2ccc3c(N)nn(C)c3c2)c1
2 | 1070 | COc1cccc(-c2ccc3c(N)nn(C)c3c2)c1OCC(F)F

— ChEMBL document CHEMBL5726143, “Aminoindazole derivatives as sodium channel inhibitors” (2019)
